Read-outs that look alike come from different tables or passages of the source. Marks after values point to notes of the source that are not given here.
How the values were obtained:
[1] = tested on: acute EAE in the Lewis rat; experiment: Prophylactic effect of glyceryl trinervonate on acute EAE (Comparative Example); format: in vivo
Experimental: Prophylactic effects of glyceryl trinervonate (GTN, Description 4) were assessed on acute EAE in the Lewis rat. Induction and Assessment of EAE was as for Example 4. Dosing regime involved oral administration in Miglyol 810 five days prior to inoculation and for 20 days post-inoculation. (Refer to Example 8 regarding insignificance of use of PBS or Miglyol vehicles).

[2] = tested on: neurological EAE in the Lewis rat; experiment: NA:NA (ethyl oleate formulation) in acute EAE (Example 5)
Experimental: Male Lewis rats, weighing 240-360 g on the day of inoculation, were injected in each rear footpad with 0.1 ml of an emulsion containing equal parts of guinea pig spinal cord, phosphate buffered saline (PBS) and incomplete Freund's adjuvant supplemented with 10 mg/ml Mycobacterium tuberculosis H37Ra.
(§5) Animals were weighed daily and assessed for neurological disease from day 7 post-inoculation (PI). Rats displaying symptoms of EAE were scored as follows: 1: flaccid tail (FT), 2: hind limb hypotonia (HLH), 3: partial hind limb paralysis (PHLP), 4: complete hind limb paralysis (CHLP), 5: moribund or dead.
Control-sensitised animals received ethyl oleate vehicle or were undosed, and each treatment contained 10 animals.
Students t-test was used to assess significant differences in neurological scores and the Fishers exact probability test for the presence or absence of symptoms.

[3] = tested on: CREAE in the Biozzi mouse model; experiment: NA:NA and NA:GLA in Miglyol 810 in CREAE (Example 8); format: in vivo
Experimental: (§1) Male Biozzi mice weighing 30-35 g were injected in each flank with 0.15 mL of an emulsion containing lyophilised mouse spinal cord, phosphate buffered saline and incomplete Freund's adjuvant supplemented with Mycobacterium butyricum and Mycobacterium tuberculosis H37Ra.
(§2) 1: Partial Flaccid Tail (PFT), 2: Complete Flaccid Tail (CFT), 3: Impaired Righting Reflex (IRR), 4: Ataxic Gait (AG), 5: Hind Limb Hypotonia (HLH), 6: Partial Hind Limb Paralysis (PHLP), 7: Complete Hind Limb Paralysis (CHLP), 8: Moribund (M), 9: Dead (D).
Therefore, Miglyol appeared well-suited for use as a vehicle in subsequent studies to determine the efficacy of compounds in CREAE. Therefore, using Miglyol 810 as the new vehicle, prophylactic effects of NA:NA and NA:GLA were re-assessed on CREAE in the Biozzi mouse model (90% dilution, 1000 mg/kg/day, up to 43 days PI).

[4] = tested on: chronic EAE in the Biozzi mouse model; experiment: NA:NA and NA:GLA in ethyl oleate in chronic relapsing EAE (Example 7); format: in vivo; settings: for AG: Percentage of mice in the group / CFT: Percentage of mice in the group / CHLP: Percentage of mice in the group / HLH: Percentage of mice in the group / PFT: Percentage of mice in the group / PHLP: Percentage of mice in the group: ethyl oleate vehicle
Experimental: as §1, §2

[5] = Nervonic acid composition of total polar lipid from mouse brain (Example 9); format: in vivo; settings: CREAE-inoculated mice
Experimental: (§3) Upon termination of certain biological evaluations, rat or mice brains were extracted and the fatty acid composition of total polar lipids from rat/mouse brain was determined.
(§4) Biological material was sent for analysis to Dr J. Hendersen at the University of Stirling, Institute of Aquaculture, Scotland. Analyses were carried out on two batches of experiments (detailed respectively in Example 6 and Example 7).

[6] = Miscibility / physical state of oral compositions in vehicle; format: physicochemical; settings: room temperature (about 20° C.); dilution in vehicle
Excerpt: Formulations of the present invention suitable for oral administration may be in the form of discrete units such as capsules, cachets, tablets or lozenges, each containing a predetermined amount of the active ingredient; in the form of a powder or granules; in the form of a solution or a suspension in an aqueous liquid or non-aqueous liquid; or in the form of an oil-in-water emulsion or a water-in-oil emulsion. The active ingredient may also be in the form of a bolus, electuary or paste. For such formulations, a range of dilutions of the active ingredient in the vehicle is suitable, such as from 1% to 99%, preferably 5% to 50% and more preferably 10% to 25% dilution. Depending upon the level of dilution, the formulation will be either a liquid at room temperature (in the region of about 20° C.) or a low-melting solid.

[7] = Nervonic acid composition of total polar lipid from rat brain (Example 9); format: in vivo; settings: after Example 6 treatments; NA:GLA at both low and high doses
Experimental: as §3, §4

[8] = tested on: neurological EAE in the Lewis rat
Experimental: Male Lewis rats, weighing 230-280 g on the day of inoculation, were injected in each rear footpad with 0.1 ml of an emulsion containing equal parts of guinea pig spinal cord; phosphate buffered saline (PBS) and incomplete Freund's adjuvant supplemented with 10 mg/ml Mycobacterium tuberculosis H37Ra.
as §5
NA:GLA (neat oil) was orally administered 5 days prior to inoculation and continued for 25 days PI, at a dose of 750 mg/kg body weight/day and 1000 mg/kg body weight/day. NA:DHA (neat oil) was given by an identical dosing regime at a dose of 500 mg/kg body weight/day. Control-sensitised animals received PBS vehicle or were undosed. Undosed, vehicle and low dose NA:GLA treatments contained 7 animals. Four rats received high dose NA:GLA and 3 rats were dosed with NA:DHA.

[9] = 10% w/w in ethyl oleate, 1000 mg/kg body weight/day
[10] = 10% w/w in ethyl oleate, oral 1000 mg/kg body weight/day, n=10
[11] = acute phase, Miglyol 810 vehicle, 1000 mg/kg/day
[12] = acute phase, Miglyol 810 vehicle, n=12, NA:GLA n=11
[13] = relapse phase, Miglyol 810 vehicle, 1000 mg/kg/day
[14] = relapse phase, Miglyol 810 vehicle, NA:GLA n=9, NA:NA n=11
[15] = Biozzi mouse, 10% w/w in ethyl oleate, 1000 mg/kg body weight/day
[16] = acute phase, Biozzi mouse, 10% w/w in ethyl oleate, 1000 mg/kg body weight/day
[17] = relapse phase, Biozzi mouse, 10% w/w in ethyl oleate, 1000 mg/kg body weight/day

Compound: CCCCCCCC/C=C/CCCCCCCCCCCCCC(=O)OCC(COC(=O)CCCCCCCCCCCCC/C=C/CCCCCCCC)OC(=O)CCCCCCCCCCCCC/C=C/CCCCCCCC [GTN, Glyceryl Trinervonate]
- onset and loss of symptoms together with duration of the disease ([1]; compared to vehicle or undosed groups): not significantly different from vehicle or undosed groups
- adverse effect (body weight gain until day 10) ([1]; dietary administered): did not induce any major adverse effect
- effect on parameters associated with neurological deficits in EAE-diseased rats ([1]; oral in Miglyol 810): did not significantly affect any parameter
- No. of diseased rats ([1]; oral in Miglyol 810, 5 days prior to inoculation and 20 days PI, n=10): 10/10
- CFT: Percentage of rats in the group ([1]; oral in Miglyol 810, n=10): 100%
- CHLP: Percentage of rats in the group ([1]; oral in Miglyol 810, n=10): 40%
- HLH: Percentage of rats in the group ([1]; oral in Miglyol 810, n=10): 90%
- MD: Percentage of rats in the group ([1]; oral in Miglyol 810, n=10): 0%
- Mean day of symptom loss ([1]; oral in Miglyol 810, n=10): 17.0 ± 1.2 days
- Mean day of symptom onset ([1]; oral in Miglyol 810, n=10): 11.2 ± 1.2 days
- Mean duration of symptoms ([1]; oral in Miglyol 810, n=10): 5.8 ± 1.1 days
- Number of dead ([1]; oral in Miglyol 810, n=10): 0/10
- PFT: Percentage of rats in the group ([1]; oral in Miglyol 810, n=10): 100%
- PHLP: Percentage of rats in the group ([1]; oral in Miglyol 810, n=10): 70%

Compound: CCCCCCCC/C=C\CCCCCCCCCCCCCC(=O)OCCCOC(=O)CCCCCCCCCCCCC/C=C\CCCCCCCC [NA:NA, 1,3-di-(z-15-tetracosenoyloxy)propane]
- CHLP: Number of animals showing symptoms/total [2, 9]: 1/10
- FT: Number of animals showing symptoms/total [2, 9]: 6/10**
- HLH: Number of animals showing symptoms/total [2, 9]: 4/10***
- Neurological scores [2, 9]: consistently lower compared to values recorded for undosed and vehicle-treated animals
- PHLP: Number of animals showing symptoms/total [2, 9]: 3/10
- animals that experienced symptoms of disease [2, 9]: 60%
- effect on incidence of disease [2, 9]: significantly reduces the incidents of disease
- Mean day of final symptom loss (±SD) [2, 10]: 16.3 ± 1.0 days
- Mean day of symptom onset (±SD) [2, 10]: 12.3 ± 0.8 days
- Mean duration of symptoms (day ± SD) [2, 10]: 4.0 ± 1.2 days
- Number of dead/total [2, 10]: 0/10
- Number diseased/total ([2]; […], oral 1000 mg/kg body weight/day, 5 days prior to inoculation and 22 days PI, n=10): 6/10*
- effect on the neurological course of CREAE ([3]; Biozzi mouse, Miglyol 810 vehicle, 1000 mg/kg/day): did not seem significantly to alter the course of CREAE
- No. of diseased mice ([3]; acute phase, Biozzi mouse, Miglyol 810 vehicle (90% dilution), 1000 mg/kg/day, up to 43 days PI): 12/12
- Mean day of symptom loss [3, 11]: 26.3 ± 1.0 days
- Mean day of symptom onset [3, 11]: 17.1 ± 1.9 days
- Mean duration of symptoms [3, 11]: 9.2 ± 1.6 days
- Number of dead mice [3, 11]: 1/12
- AG: Percentage of mice in the group [3, 12]: 100%
- CFT: Percentage of mice in the group [3, 12]: 100%
- CHLP: Percentage of mice in the group [3, 12]: 58%
- D (dead): Percentage of mice in the group [3, 12]: 8%
- HLH: Percentage of mice in the group [3, 12]: 100%
- IRR: Percentage of mice in the group [3, 12]: 100%
- M (moribund): Percentage of mice in the group [3, 12]: 0%
- PFT: Percentage of mice in the group [3, 12]: 100%
- PHLP: Percentage of mice in the group [3, 12]: 75%
- Mean day of symptom loss [3, 13]: 44.0 ± 3.6 days
- Mean day of symptom onset [3, 13]: 34.3 ± 6.6 days
- Mean duration of symptoms [3, 13]: 13.7 ± 4.0 days
- No. of diseased mice [3, 13]: 9/11
- Number of dead mice [3, 13]: 3/11
- AG: Percentage of mice in the group [3, 14]: 82%
- CFT: Percentage of mice in the group [3, 14]: 82%
- CHLP: Percentage of mice in the group [3, 14]: 73%
- D (dead): Percentage of mice in the group [3, 14]: 27%
- HLH: Percentage of mice in the group [3, 14]: 82%
- IRR: Percentage of mice in the group [3, 14]: 82%
- M (moribund): Percentage of mice in the group [3, 14]: 0%
- PFT: Percentage of mice in the group [3, 14]: 82%
- PHLP: Percentage of mice in the group [3, 14]: 73%
- Acute and relapse symptoms (mean neurological scores) [4, 15]: completely abolished
- onset of relapse [4, 15]: delayed, but not significantly
- Mean day of symptom loss [4, 16]: 24.7 ± 3.2 days
- Mean day of symptom onset [4, 16]: 22.3 ± 3.8 days
- Mean duration of symptoms [4, 16]: 2.3 ± 1.2 days
- Number of dead mice [4, 16]: 0/10
- No. of diseased mice ([4]; acute phase, Biozzi mouse, […], oral 1000 mg/kg body weight/day, 5 days prior to inoculation and 43 days PI, n=10): 3/10
- AG: Percentage of mice in the group ([4]; acute phase, n=10): 20%
- CFT: Percentage of mice in the group ([4]; acute phase, n=10): 0%
- CHLP: Percentage of mice in the group ([4]; acute phase, n=10): 0%
- HLH: Percentage of mice in the group ([4]; acute phase, n=10): 10%
- PFT: Percentage of mice in the group ([4]; acute phase, n=10): 10%
- PHLP: Percentage of mice in the group ([4]; acute phase, n=10): 0%
- Mean day of symptom onset [4, 17]: 43.3 ± 1.2 days
- No. of diseased mice [4, 17]: 3/10
- Number of dead mice [4, 17]: 1/10
- AG: Percentage of mice in the group ([4]; relapse phase, n=10): 30%
- CFT: Percentage of mice in the group ([4]; relapse phase, n=10): 0%
- CHLP: Percentage of mice in the group ([4]; relapse phase, n=10): 0%
- HLH: Percentage of mice in the group ([4]; relapse phase, n=10): 30%
- PFT: Percentage of mice in the group ([4]; relapse phase, n=10): 20%
- PHLP: Percentage of mice in the group ([4]; relapse phase, n=10): 0%
- NA levels in mouse brain lipids compared to undosed and vehicle [5]: enhancement of the NA levels in brain lipids
- concentration at which compositions are liquids at room temperature [6]: ≤ 25%

Compound: CCC=CCC=CCC=CCC=CCC=CC/C=C\CCC(=O)OCCCOC(=O)CCCCCCCCCCCCC/C=C\CCCCCCCC [NA:DHA, 1-(z-15-tetracosenoyloxy)-3-(z-4,7,10,13,16,19-docosahexaenoyloxy)propane]
- NA levels in rat brain lipids compared to normal, undosed and vehicle treated animals [7]: did not enhance the NA levels
- CHLP: Number of animals showing symptoms/total ([8]; 500 mg/kg/day): 3/3
- FT: Number of animals showing symptoms/total ([8]; 500 mg/kg/day): 3/3
- HLH: Number of animals showing symptoms/total ([8]; 500 mg/kg/day): 3/3
- PHLP: Number of animals showing symptoms/total ([8]; 500 mg/kg/day): 3/3
- daily score ([8]; 500 mg/kg/day): enhanced compared to levels noted for control and NA:GLA-treated animals
- development of CHLP ([8]; 500 mg/kg/day): 11.3±1.3
- effect on neurological symptoms ([8]; 500 mg/kg/day): intensified neurological symptoms
- Mean day of final symptom loss (±SD) ([8]; neat oil oral 500 mg/kg/day): 19.3 ± 1.2 days
- Mean day of symptom onset (±SD) ([8]; neat oil oral 500 mg/kg/day): 10.3 ± 0.6 days
- Number of dead/total ([8]; neat oil oral 500 mg/kg/day): 0/3
- Number diseased/total ([8]; neat oil oral 500 mg/kg/day, 5 days prior to inoculation and 25 days PI): 3/3

Compound: CCCCCCCC/C=C\CCCCCCCC(=O)OCC [ethyl oleate]
- effect of the vehicle on incidence and severity of chronic relapsing EAE ([4]; Biozzi mouse, ethyl oleate vehicle alone, compared to undosed): significantly reduced the incidence and severity of the acute and relapsing phases
